Legend:
[1] = biological target: T1, Human Bcl-2 protein (Homo sapiens, UniProt P10415); test: Evaluation of binding of compound to Bcl-2 by surface plasmon resonance (SPR)-2, Example 13; conditions: for Kd: Biacore T200, biotinylated Bcl-2 immobilized on Sensor Chip SA, 15° C., read-out: Equilibrium dissociation constant KD; for equilibrium dissociation constant KD compared with B2Q045-01 (KD=1.20 μM) or B2Q048-01 (KD=0.480 μM): Biacore T200, 15° C.
T1 construct: purchased Novus Biologicals
Procedure: A surface plasmon resonance method was used in order to analyze the binding affinity of the compounds synthesized in Example 12 for Bcl-2, which are shown in Table 13-1. The apparatus used was Biacore T200 (GE Healthcare Japan Corp.), and the running buffer used was HBS (10 mM HEPES-NaOH and 150 mM NaCl, pH 7.4) supplemented with 1 mM DTT, 3 mM EDTA, 0.01% Tween 20 and 4% DMSO. Human Bcl-2 protein (Novus Biologicals) was biotinylated using EZ-Link NHS-PEG4-Biotin (Thermo Fisher scientific Inc.) and immobilized on the surface of Sensor Chip SA (Cytiva). Then, compound solutions having a plurality of concentrations and the running buffer (blank) were added to the Bcl-2-immobilized surface to obtain the binding response of the compounds. Measurement was performed at 15° C.
The obtained sensorgrams were treated with Biacore T200 Evaluation Software, and the equilibrium dissociation constant KD of each compound for Bcl-2 was determined as shown in the following Table 13-2.

[2] = biological target: T2, Bcl-2 protein (Recombinant Human Bcl-2 Protein) (Homo sapiens, UniProt P10415); test: AS-MS evaluation of binding of the mixture libraries of Examples 8 and 9 to Bcl-2, ASMS ratio (%), Example 11; conditions: ASMS ratio, mixtures obtained from Example 9, 10 uM Bcl-2 protein; for AS-MS(%) N1: replicate N1; for AS-MS(%) N2: replicate N2; for AS-MS(%) N3: replicate N3 (additional day); for AS-MS(%) N4: replicate N4 (additional day)
T2 construct: purchased Novus Biologicals NBP2-34889
Procedure: DMSO solutions (prepared into approximately 5 mM based on calculation from the average molecular weight of each mixture) of the mixtures of each Example shown in Table 11-1-1 were respectively dispensed to 8 wells of MICROPLATE, 96-WELL, PP, V-BOTTOM (Greiner Bio-One International GmbH, 651201). 400 nL each from the 8 wells of the mixtures obtained from Example 8 was dispensed into 3 designated wells while 200 nL each from the 8 wells of the mixtures obtained from Example 9 was dispensed into 3 designated wells, using LABCYTE ECHO® 555 acoustic dispensing system (Beckman Coulter, Inc.). 200 nL each of two types of 10 μM positive controls (B2Q045-01 and B2Q048-01) was dispensed to the mixtures obtained from Example 8. Likewise, 100 nL each of two types of 20 μM positive controls and 400 nL of a DMSO solution by backfill was dispensed to the mixtures obtained from Example 9. Further, Bcl-2 protein (Novus Biologicals, NBP2-34889, Recombinant Human Bcl-2 Protein, Lot E60145051) (19.2 μL) prepared at 5 µM (final protein concentration) for the mixtures obtained from Example 8 and 10 µM (final protein concentration) for the mixtures obtained from Example 9, in advance using a Tris-HCl buffer (25 mM Tris-HCl, pH 7.4, 150 mM NaCl, 0.025% Tween-20, and 1 mM DTT) was added to the well containing the dispensed 1000 compounds or 500 compounds (final compound concentration: 100 nM), and the plate was incubated at 23° C. for 1 hour in the dark. Subsequently, 200 μL of an assay buffer (25 mM Tris-HCl, pH 7.4, 150 mM NaCl, 0.025% Tween-20, and 1 mM DTT) was centrifuged three times at 2000×G at 4° C. for 2 minutes using 96-well MacroSpin column, P-2 Material (Harvard Bioscience, Inc., 74-5655) that had been allowed to swell to condition the 96-well MacroSpin column. Subsequently, 20 μL of the sample thus incubated was added to the 96-well MacroSpin column, P-2 Material after the completion of conditioning, and SEC treatment was performed by centrifugation at 2000×G for 2 minutes. 32 μL of a 1:1 mixed solution of acetonitrile and methanol (LC/MS grade, FUJIFILM Wako Pure Chemical Corp.) was added to a flow-through liquid from SEC, and the mixture was centrifuged at 1800×G at 4° C. for 5 minutes. The supernatant was used as analysis sample ASMS (A). By a similar operation, a sample prepared at 500 compounds/well or 1000 compounds/well and supplemented with only a Tris-HCl buffer containing no Bcl-2 protein was incubated under the same conditions as above, and the same organic solvent as above was added thereto without 96-well MacroSpin column treatment. A supernatant obtained by a centrifugation operation was used as STD (B). Next, by a similar operation, a sample prepared at 1000 compounds/well or 500 compounds/well and supplemented with only a Tris-HCl buffer containing no Bcl-2 protein was incubated under the same conditions as above and treated with 96-well MacroSpin column in the same manner as above, and the same organic solvent as above was added thereto. A supernatant obtained by a centrifugation operation was used as BK (C). These samples were measured by reverse-phase LC/MS.
Then, the samples A, B and C were analyzed for the 1000 compounds or 500 compounds using TraceFinder 5.1 (Thermo Fisher Scientific Inc.) and CHANCE Software (in-house), and an ASMS ratio (%) was calculated according to the following expression.
The mixtures obtained from Example 8 were tested at the number of data of 2 (N1 and N2) in order to ensure reproducibility. The mixtures obtained from Example 9 were tested at the total number of data 4 (N1,N2, N3, and N4) involving the number of data of 2/day (N1 and N2) and data obtained on additional days.

T2 sequence (P10415 whole entry): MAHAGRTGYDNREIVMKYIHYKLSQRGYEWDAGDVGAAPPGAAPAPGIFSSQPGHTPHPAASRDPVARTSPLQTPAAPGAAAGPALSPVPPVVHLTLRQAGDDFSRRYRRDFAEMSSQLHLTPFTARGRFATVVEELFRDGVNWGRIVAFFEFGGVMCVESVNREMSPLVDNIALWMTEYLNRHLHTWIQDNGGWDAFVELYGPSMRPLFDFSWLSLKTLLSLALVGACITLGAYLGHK
T1 sequence (P10415 whole entry): as above

Kd [1] [nM]	AS-MS(%) N1 [2] [%]	AS-MS(%) N2 [2] [%]	AS-MS(%) N3 [2] [%]	AS-MS(%) N4 [2] [%]	SMILES	equilibrium dissociation constant KD compared with B2Q045-01 (KD=1.20 μM) or B2Q048-01 (KD=0.480 μM) [1]
7910	34.2	33.3	44.4	38.0	CC(C(=O)Nc1ccccc1)c1cc(O)cc(N2CCN(c3ccc(C(=O)NS(=O)(=O)c4ccc(NCCSc5ccccc5)c([N+](=O)[O-])c4)cc3)CC2)c1 (stereo not shown) [2-2-d1E03-1-0417]	
15200	34.7	33.4	39.2	38.2	CC(C(=O)Nc1ccc(F)cc1)c1cc(O)cc(N2CCN(c3ccc(C(=O)NS(=O)(=O)c4ccc(NCCSc5ccccc5)c([N+](=O)[O-])c4)cc3)CC2)c1 (stereo not shown) [2-2-d1E03-1-0454]	
5340	28.9	38.1	35.6	39.3	CC(C(=O)Nc1nc2ccccc2s1)c1cc(O)cc(N2CCN(c3ccc(C(=O)NS(=O)(=O)c4ccc(NCCSc5ccccc5)c([N+](=O)[O-])c4)cc3)CC2)c1 (stereo not shown) [2-2-d1E03-1-0495]	
582	70.3	77.8	72.8	71.8	CC(C(=O)Nc1ccccc1)c1cc(O)cc(N2CCN(c3ccc(C(=O)NS(=O)(=O)c4ccc(N[C@H](CCN5CCOCC5)CSc5ccccc5)c([N+](=O)[O-])c4)cc3)CC2)c1 (stereo partly shown) [2-2-d1E04-1-0417]	smaller equilibrium dissociation constant KD
775	57.8	68.3	60.9	58.1	Cc1ccc(NC(=O)C(C)c2cc(O)cc(N3CCN(c4ccc(C(=O)NS(=O)(=O)c5ccc(N[C@H](CCN6CCOCC6)CSc6ccccc6)c([N+](=O)[O-])c5)cc4)CC3)c2)cc1 (stereo partly shown) [2-2-d1E04-1-0446]	smaller equilibrium dissociation constant KD
788	72.6	87.8	78.5	74.6	CC(C(=O)Nc1ccc(F)cc1)c1cc(O)cc(N2CCN(c3ccc(C(=O)NS(=O)(=O)c4ccc(N[C@H](CCN5CCOCC5)CSc5ccccc5)c([N+](=O)[O-])c4)cc3)CC2)c1 (stereo partly shown) [2-2-d1E04-1-0454]	smaller equilibrium dissociation constant KD
162	59.4	93.2	85.8	69.0	CC(C(=O)Nc1nc2ccccc2s1)c1cc(O)cc(N2CCN(c3ccc(C(=O)NS(=O)(=O)c4ccc(N[C@H](CCN5CCOCC5)CSc5ccccc5)c([N+](=O)[O-])c4)cc3)CC2)c1 (stereo partly shown) [2-2-d1E04-1-0495]	smaller equilibrium dissociation constant KD
2510	45.5	61.4	52.7	51.0	CC(C(=O)Nc1ccc(C(F)(F)F)cc1)c1cc(O)cc(N2CCN(c3ccc(C(=O)NS(=O)(=O)c4ccc(N[C@H](CCN5CCOCC5)CSc5ccccc5)c([N+](=O)[O-])c4)cc3)CC2)c1 (stereo partly shown) [2-2-d1E04-1-0498]	
846	43.8	48.8	53.8	65.5	CCOc1cc(C(C)C(=O)Nc2ccccc2)cc(N2CCN(c3ccc(C(=O)NS(=O)(=O)c4ccc(N[C@H](CCN5CCOCC5)CSc5ccccc5)c([N+](=O)[O-])c4)cc3)CC2)c1 (stereo partly shown) [2-2-d1E04-2-0417]	smaller equilibrium dissociation constant KD
1330	62.1	45.0	44.0	46.2	CCOc1cc(C(C)C(=O)Nc2ccc(C)cc2)cc(N2CCN(c3ccc(C(=O)NS(=O)(=O)c4ccc(N[C@H](CCN5CCOCC5)CSc5ccccc5)c([N+](=O)[O-])c4)cc3)CC2)c1 (stereo partly shown) [2-2-d1E04-2-0446]	
